How the values were obtained:
[1] = tested on: L-type Ca2+ channels in GH3 cells; assay: Inhibition of L-type calcium flux in GH3 cells (Indo-1 fluorescence); assay type: cell-based, rat
Description: Measurement of L-type Ca^2+ Channel Blocking Potencies of Compounds in GH3 Cells Using the Fluorescent Ca^2+ Indicator Indo-1
The GH3 rat pituitary cell line was obtained from the American Type Culture Collection (Rockville, Md.). Cells were grown in Ham's F-10 medium with 15% horse serum, 2.5% fetal bovine serum (FBS), and […] (Gibco, Gaithersburg, Md.). Confluent cells were detached using 0.5 mM EDTA and loaded with 5 μM Indo-acetoxymethyl ester (Molecular Probes, Eugene, Oreg.) in 1% bovine serum albumin (BSA) containing assay buffer (10 mM HEPES/Tris pH 7.4 in Hank's Balanced Salt Solution without bicarbonate or phenol red) for 60 minutes at 30° C. Loaded cells were washed twice, resuspended (approx. 10^7 cells/mL) in assay buffer containing 0.5% BSA, and kept on ice until use (<3 hrs). Different concentrations of the test compounds (60 μL in dimethyl sulfoxide) or controls were added to 5.94 mL of assay buffer containing approximately 3×10^6 loaded cells, and the samples were incubated for 10 minutes at 30° C. After incubation, samples were aliquoted into 3 cuvettes, and their fluorescence was measured with a Photon Technology International (PTI, South Brunswick, N.J.) Model RF-F3004 spectrofluorometer thermostatted at 30° C. Excitation was set at 350 nm and dual emissions were recorded at 400 and 490 nm. Basal emission signals were acquired for 20 seconds, followed by the depolarization of cells by the addition of 200 μL of a stimulation solution (1 M KCl, 68 mM CaCl2) to the stirred cuvette. Emission signals were acquired for an additional 50 seconds after depolarization. Ratio of emission signals (F400 nm/F490 nm), which is proportional to intracellular Ca^2+ concentration, was plotted against time, and the difference between the emission ratio 50 seconds after stimulation and its basal value (before stimulation) was determined. Values obtained in this way were considered as measures of depolarization-induced Ca-flux through L-type channels and plotted as a function of drug concentration. IC50 values of test compounds were calculated by fitting a four-parameter logistic function to the data using the least squares method.

| SMILES | IC50 [1] | melting point |
| --- | --- | --- |
| CC(C)C[C@H](NC(=O)N1CCCCCC1)C(=O)N[C@@H](Cc1ccc(OCc2ccccc2)cc1)C(=O)OC(C)(C)C [Example 1] | 4.48 µM |  |
| CC(C)(C)OC(=O)[C@H](Cc1ccc(OCc2ccccc2)cc1)NC(=O)[C@H](Cc1ccccc1)NC(=O)N1CCCCCC1 [Example 16] | 4.3 µM |  |
| CC(C)C[C@H](NC(=O)N1CCCCCC1)C(=O)N[C@@H](Cc1ccc(C#CC2(O)CCCCC2)cc1)C(=O)NC(C)(C)C [Example 138, [S-(R*,R*)]-Azepane-1-carboxylic acid (1-({-tert-butylcarbamoyl-2-[4-(1-hydroxy-cyclohexylethynyl)-phenyl]-ethylcarbamoyl}-3-methyl-butyl)-amide] |  | 120 to 122 °C |
| CC(C)C[C@H](NC(=O)N1CCCCCC1)C(=O)N[C@@H](Cc1ccc(C=Cc2ccccc2)cc1)C(=O)NC(C)(C)C [Example 141, [S-(R*,R*)]-Azepane-1-carboxylic acid {1-[1-tert-butylcarbamoyl-2-(4-styryl-phenyl)-ethylcarbamoyl]-3-methyl-butyl}-amide] |  | 95 to 96 °C |
